Measurements as given in article PMC11302729, “Repurposing Hsp90 inhibitors as antimicrobials targeting two-component systems identifies compounds leading to loss of bacterial membrane integrity” (Microbiology Spectrum, 2024).

Tests used:
sheep red blood cells = assay: Haemolysis assay; assay type: cell-based; conditions: if considered to cause haemolysis to red blood cells
Procedure: (§1) The hemolysis assay was adapted from the study by Evans et al. ([65]). Briefly, sheep RBC 10% washed pooled cells in PBS (Rockland Immunochemicals, Limerick, PA, USA) were diluted 1:5 to give a final concentration of 2% RBCs in PBS. […] A non-treated control, 1% DMSO (vehicle control), and complete cell lysis control (Triton-X 2%) were included in each assay. After exposure samples were centrifuged at 4°C at 1,000 g for 15 min and 100 µL of supernatant transferred to a clean well in a 96-well, clear, flat-bottom plate (Corning Incorporated). Released hemoglobin was measured by absorption at 540 nm using a Spectramax M5 plate reader. The experiments were performed in quadruplicate. The percentage of hemolysis was calculated as follows:
(§2) Hemolysis=A540nm,testcondition−A540nm,DMSOcontrol/A540nm,TritonXControl−A540nm,DMSOcontrol

Hsp90α = biological target: T1, Hsp90α (Homo sapiens, UniProt P07900); assay: Hsp90 fluorescence polarization assay (displacement of FITC-labeled geldanamycin); conditions: compound concentration that decreases geldanamycin binding by 50%
T1 construct: expression strains containing GST-Hsp90 N(9-236) plasmid (Addgene: 22481); host or cells: E. coli BL21(DE3)
Procedure: The compounds were tested for inhibition of HK autophosphorylation in vitro. Of the 24 derivatives, 6 inhibited in vitro autophosphorylation of E. coli EnvZ at a concentration of 2 mM. […] Each compound has similar IC50 values for PhoR and EnvZ, indicating good potential for polypharmacology. We discounted the notion that DPP-induced aggregation of HKs was the reason for inhibiting autophosphorylation using native gel protein electrophoresis of HK proteins with and without DPPs (data not shown). We also investigated if the four DPP inhibiting HK autophosphorylation would also bind to Hsp90α in a fluorescence polarization assay. In this assay, inhibitors were tested for their ability to displace FITC-labeled geldanamycin (a well-known Hsp90 inhibitor) from the ATP pocket ([40]). All the compounds tested displaced FITC-labeled geldanamycin with IC50s in the nM range (Table 2).
The Hsp90α […] domain was purified as described by Goode et al. ([57]). E. coli BL21(DE3) expression strains containing GST-Hsp90 N(9-236) plasmid (Addgene: 22481) were grown in 1 L LB media supplemented with 100 µg/mL ampicillin at 25°C and shaking (200 r.p.m.) to OD600 0.5, and protein expression was induced by the addition of 1 mM IPTG, and the culture was grown at 25°C and shaking (200 r.p.m.) overnight. Cells were then pelleted (4,000 g, 4°C), resuspended in 40 mL buffer A2 (50 mM Tris-HCl pH 8.0, 0.5 M NaCl, and 1 mM phenylmethanesulfonyl fluoride), sonicated (4°C, 5 min with pulses of 15 sec at intervals of 1 min), and centrifuged (11,000 g, 4°C, 60 min). Supernatant was passed through a 5-mL Glutathione Sepharose 4B (GE Healthcare) equilibrated with buffer A2 using an AKTA system (GE Healthcare). Column was washed using buffer A2, and a linear gradient of glutathione (0–0.25M) in buffer A2 was applied. Fractions containing Hsp90α were collected, mixed, and concentrated by ultrafiltration.
Competitive binding of inhibitors to Hsp90 was measured by fluorescence polarization assay as previously reported ([58]). Inhibitors were assayed in different concentrations (range 0–1,000 µM) in a Nunc black, low binding 384-well plate (Thermo Scientific). Each reaction was prepared in reaction mix (100 mM Tris-Cl, pH 7.4, 20 mM KCl, 6 mM MgCl2, 2 mM DTT, and 0.1 mg/mL bovine serum albumin) in a final volume of 50 µL containing 350 nM Hsp90 and 100 nM geldanamycin FITC labeled (BPS Bioscience, San Diego, CA, USA) and the inhibitor in the correspondent concentration. Blank control containing no enzyme and no geldanamycin, enzyme-positive control containing no inhibitor, and enzyme-negative control containing no Hsp90 were included. Fluorescence polarization was then measured using Tecan SPARK (Tecan, Grödig, Austria) at wavelengths λex = 485 nm and λem = 530 nm.

Haemolysis assay = assay type: cell-based, sheep; conditions: sheep, sheep red blood cells, 2% suspension; read-out: RBC hemolysis
Procedure: as §1, §2

HEK293 cells = assay: Cell imaging of HEK293 cells; assay type: cell-based; conditions: LC20, 24 hours exposure, 40× amplification
Procedure: HEK293 cells were plated in 24-well plates on exposure medium for 24 hours (500,000 cells/well). Cells were exposed to a subset of compounds at a lethal concentration of 20% (LC20). After 24 hours exposure, cells were fixed with 2% glutaraldehyde for 15 min, washed with water, permeabilized with 0.5% Triton-X, washed twice with water, and stained with Toluidine blue 0.3%. For 100× amplification, cells were harvested by pipetting up and down in 250 µL of exposure medium. Cells from three wells treated with the same compound were pooled and centrifuged for 5 min at 1,500 r.p.m. The cell pellet was fixed in 0.1 M cacodylate buffer containing 2% glutaraldehyde (vol/vol) (pH 7.4). After 1 hour on ice, the pellet was washed with 0.1 M cacodylate buffer and fixed in 0.1 M cacodylate buffer containing 1% osmium tetroxide (wt/vol). After a further hour on ice, the cell pellet was embedded in hard Epon and 1-µm slides were cut and stained with 1% toluidine blue and 1% borax (wt/vol). Cell abnormalities were assessed by microscopy using a Leica DM6B light microscope (Leica Microsystems B.V., Amsterdam, the Netherlands) at 100× magnification.

For COc1ccc(-c2[nH]nc(C(F)(F)F)c2-c2ccccc2)c(O)c1 [DPP-2], the Haemolysis (sheep red blood cells) was “MILD”.

With COc1ccc(-c2c(C(F)(F)F)n[nH]c2-c2ccc(O)cc2O)cc1 [DPP-12] the IC50 (Hsp90α) was 0.574 µM.

For Oc1ccc(-c2n[nH]c(C(F)(F)F)c2-c2ccc(Cl)cc2)c(O)c1 [DPP-5], the IC50 (Hsp90α) was 0.496 µM, the hemolysis at 30 min (Haemolysis assay) was 100% and the “Morphological changes of HEK293 cells” value (HEK293 cells) was “membrane blebbing”.

In the case of CCOc1ccc(-c2[nH]nc(C(F)(F)F)c2-c2ccc(Cl)cc2)c(O)c1 [DPP-7], the Haemolysis (sheep red blood cells) is reported as “YES”.

COc1ccc(-c2c(C(F)(F)F)n[nH]c2-c2ccc(OC)cc2O)cc1 [DPP-13] gave an IC50 (Hsp90α) of 0.838 µM.

With COc1ccc(-c2[nH]nc(C(F)(F)F)c2-c2ccc(Cl)cc2)c(O)c1 [DPP-6] the IC50 (Hsp90α) was 0.798 µM, the hemolysis at 30 min (Haemolysis assay) was 100% and the Haemolysis (sheep red blood cells) was “YES”. For the same compound, the “Morphological changes of HEK293 cells” value (HEK293 cells) was “membrane blebbing”.
